{"source": "patent US5482971A", "about": "“Beta3 -adrenergic agents and their use in pharmaceutical compositions” (American Cyanamid Company, priority 1993, dated 1996)", "key": {"[1]": {"biological_target": "T1, beta3 -adrenergic receptor (Rattus norvegicus, UniProt P26255)", "T1 construct": "Rat epididymal fat pads are excised and placed in 0.9% saline; from tissue; host or cells: collagenase-isolated adipocytes from rat epididymal fat pads", "T1 sequence (P26255 whole entry)": "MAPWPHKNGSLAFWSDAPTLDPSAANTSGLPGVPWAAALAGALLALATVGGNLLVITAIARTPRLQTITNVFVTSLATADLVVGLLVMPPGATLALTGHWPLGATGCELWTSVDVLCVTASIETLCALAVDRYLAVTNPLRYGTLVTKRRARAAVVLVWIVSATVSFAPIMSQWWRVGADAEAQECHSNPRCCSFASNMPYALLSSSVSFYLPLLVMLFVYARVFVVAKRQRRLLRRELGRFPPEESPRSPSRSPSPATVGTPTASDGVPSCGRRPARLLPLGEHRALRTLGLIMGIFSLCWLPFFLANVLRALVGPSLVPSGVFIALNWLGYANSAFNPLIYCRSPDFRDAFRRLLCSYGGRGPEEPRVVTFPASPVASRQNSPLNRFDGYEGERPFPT", "experiment": "β3-effect: stimulation of adipocyte lipolysis (rat epididymal fat pad cells, glycerol release)", "type": "cell-based", "conditions": "rat epididymal adipocytes, 37° C., 30 minutes; concentration giving 50% of the maximum rate of lipolysis of that compound", "experimental": "(§1) Selectivity of a compound is determined using the following procedures.\nThe β3 -effect of the compounds is determined by their ability to stimulate adipocyte lipolysis. Rat epididymal fat pads are excised and placed in 0.9% saline. Four grams of tissue is transferred to a flask with 20 ml of aerated Krebs-Henseleit bicarbonate (KHB) buffer containing 3% fatty acid-free bovine serum albumin to which 75 mg of crude bacterial collagenase (Worthington) has been added. The tissue is incubated for about 45 minutes at 37° C. with gentle shaking. The cells are then washed three times with two volumes of KHB buffer, filtered through two layers of gauze, and brought to a final volume of 80 ml with KHB buffer. One ml aliquots of the cell suspension is added to plastic test tubes containing the appropriate additions of vehicle or compound. The cells are gassed for 1 minute with 95%O2 -5%CO2, capped, and incubated at 37° C. with continuous shaking for a total of 30 minutes. The reaction is stopped by adding 0.1 ml of 30% perchloric acid and 0.1 ml of chloroform. […] The amount of glycerol generated from the hydrolysis of endogenous triglycerides is determined in a coupled-enzyme spectrophotometric assay. […] The amount of NADH generated, which is proportional to the amount of glycerol, is determined by the increase in absorbance at 340 nm. […]"}, "[2]": {"biological_target": "T2, beta2 -adrenergic receptor (Rattus norvegicus, UniProt P10608)", "T2 construct": "membranes from rat lung; from tissue; host or cells: rat lung membranes", "T2 sequence (P10608 whole entry)": "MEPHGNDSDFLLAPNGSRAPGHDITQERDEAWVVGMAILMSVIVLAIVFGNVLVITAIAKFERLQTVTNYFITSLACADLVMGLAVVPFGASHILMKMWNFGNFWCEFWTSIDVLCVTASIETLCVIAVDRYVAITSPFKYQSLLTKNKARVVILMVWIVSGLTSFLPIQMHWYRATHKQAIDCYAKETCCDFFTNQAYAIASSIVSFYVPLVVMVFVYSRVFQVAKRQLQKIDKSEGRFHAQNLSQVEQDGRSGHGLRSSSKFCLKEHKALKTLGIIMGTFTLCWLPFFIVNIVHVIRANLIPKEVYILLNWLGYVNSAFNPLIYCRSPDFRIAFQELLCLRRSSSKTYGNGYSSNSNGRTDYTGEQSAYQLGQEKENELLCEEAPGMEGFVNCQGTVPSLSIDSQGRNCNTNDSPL", "experiment": "Lung binding: β2-effect, membranes from rat lung, [125I]iodocyanopindolol", "conditions": "incubation 1 hour", "experimental": "as §1\n(§2) Binding assays for β1 -effect are carried out by the use of membranes from rat heart, and β2 -effect by the use of membranes from rat lung by the method described in Neve, et at., J. Pharmacol. Exp. Ther., 1985, 235, 657-664 with the following exceptions:\n(§3) 1. the incubation volume is 0.5 ml,\n(§4) 2. the incubation time is 1 hour,\n(§5) 3. the radioligand is [^125 I]iodocyanopindolol,\n(§6) 4. (-)-isoproterenol (50 μM) is used to define specific binding, and\n(§7) 5. the filters are washed at 4° C."}, "[3]": {"biological_target": "T3, beta1 -adrenergic receptor (Rattus norvegicus, UniProt P18090)", "T3 construct": "membranes from rat heart; from tissue; host or cells: rat heart membranes", "T3 sequence (P18090 whole entry)": "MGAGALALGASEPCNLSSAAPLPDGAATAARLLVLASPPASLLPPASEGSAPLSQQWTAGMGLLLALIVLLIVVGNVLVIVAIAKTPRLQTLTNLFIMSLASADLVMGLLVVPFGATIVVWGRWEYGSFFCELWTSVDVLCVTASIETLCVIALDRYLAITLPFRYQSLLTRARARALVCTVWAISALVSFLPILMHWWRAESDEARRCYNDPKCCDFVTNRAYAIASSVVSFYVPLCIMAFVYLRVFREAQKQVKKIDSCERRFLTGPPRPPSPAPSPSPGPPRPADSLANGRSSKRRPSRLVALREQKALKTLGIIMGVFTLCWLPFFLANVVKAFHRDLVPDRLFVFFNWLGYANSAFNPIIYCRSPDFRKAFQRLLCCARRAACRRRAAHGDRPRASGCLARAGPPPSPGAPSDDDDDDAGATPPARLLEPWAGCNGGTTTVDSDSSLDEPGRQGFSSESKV", "experiment": "Heart binding: β1-effect, membranes from rat heart, [125I]iodocyanopindolol", "conditions": "incubation 1 hour", "experimental": "as §1, §2, §3, §4, §5, §6, §7"}}, "data": [{"smiles": "C[C@H](CCc1ccc2c(c1)OC(C(=O)O)(C(=O)O)O2)NC[C@H](O)c1cccc(Cl)c1", "note": "[Example 3, Disodium (R,R)-5-((3-(2-(3-chlorophenyl)-2-hydroxyethyl)amino)butyl)-1,3-benzodioxole-2,2-dicarboxylate]", "values": [{"measurement": "EC50", "setting": "[1]", "result": 17, "unit": "nM"}, {"measurement": "IC50", "setting": "[2]", "result": 20000, "unit": "nM"}, {"measurement": "IC50", "setting": "[3]", "result": 19000, "unit": "nM"}]}]}
